29 molecules from patent publication US10117858B2, “Pyridine and pyrazine derivative for the treatment of CF” (Novartis AG, priority 2010, dated 2018) can be followed below.

Chain of ΔF508-CFTR (P13569 other isoform, or with tags, fused parts or gaps del F508-F508): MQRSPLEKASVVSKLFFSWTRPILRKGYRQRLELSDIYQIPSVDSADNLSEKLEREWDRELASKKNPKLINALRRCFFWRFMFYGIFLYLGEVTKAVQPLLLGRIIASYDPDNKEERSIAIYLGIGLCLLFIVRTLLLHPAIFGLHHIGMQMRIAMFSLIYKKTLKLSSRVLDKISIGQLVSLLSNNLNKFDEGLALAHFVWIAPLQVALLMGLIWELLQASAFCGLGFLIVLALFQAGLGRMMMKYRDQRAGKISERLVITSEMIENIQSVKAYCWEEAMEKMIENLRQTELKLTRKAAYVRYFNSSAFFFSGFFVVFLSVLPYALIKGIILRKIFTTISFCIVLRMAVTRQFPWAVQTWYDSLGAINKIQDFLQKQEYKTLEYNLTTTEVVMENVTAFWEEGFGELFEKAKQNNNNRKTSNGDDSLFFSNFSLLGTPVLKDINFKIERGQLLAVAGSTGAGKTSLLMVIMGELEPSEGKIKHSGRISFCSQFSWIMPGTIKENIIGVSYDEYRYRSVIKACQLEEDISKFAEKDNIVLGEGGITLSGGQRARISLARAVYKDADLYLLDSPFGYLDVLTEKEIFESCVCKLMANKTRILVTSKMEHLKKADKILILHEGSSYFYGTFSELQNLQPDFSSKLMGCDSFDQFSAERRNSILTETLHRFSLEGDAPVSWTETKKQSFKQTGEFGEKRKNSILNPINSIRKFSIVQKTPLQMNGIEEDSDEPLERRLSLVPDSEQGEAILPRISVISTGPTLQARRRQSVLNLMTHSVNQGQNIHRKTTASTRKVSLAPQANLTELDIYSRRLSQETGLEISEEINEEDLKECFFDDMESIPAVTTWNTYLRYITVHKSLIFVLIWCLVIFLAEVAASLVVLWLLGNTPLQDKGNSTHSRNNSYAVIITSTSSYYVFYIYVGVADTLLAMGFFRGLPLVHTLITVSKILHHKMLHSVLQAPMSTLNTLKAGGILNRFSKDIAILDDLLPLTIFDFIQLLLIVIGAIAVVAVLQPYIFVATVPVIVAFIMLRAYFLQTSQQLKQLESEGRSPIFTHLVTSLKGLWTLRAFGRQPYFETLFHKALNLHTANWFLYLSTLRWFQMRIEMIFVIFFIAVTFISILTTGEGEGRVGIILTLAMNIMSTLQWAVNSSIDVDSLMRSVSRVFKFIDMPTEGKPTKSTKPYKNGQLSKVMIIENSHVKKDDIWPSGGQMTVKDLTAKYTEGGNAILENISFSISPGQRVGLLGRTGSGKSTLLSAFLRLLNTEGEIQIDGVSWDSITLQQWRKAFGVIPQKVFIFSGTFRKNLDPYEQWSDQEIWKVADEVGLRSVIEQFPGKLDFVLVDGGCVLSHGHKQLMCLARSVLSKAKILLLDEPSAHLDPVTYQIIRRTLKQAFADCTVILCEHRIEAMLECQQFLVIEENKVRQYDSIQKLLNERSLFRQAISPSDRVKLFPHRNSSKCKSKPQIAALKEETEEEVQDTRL

One experiment concerns the target ΔF508-CFTR (Homo sapiens (Human), UniProt P13569, DEL508-508). Kind of experiment: CFTR potentiator assays (membrane potential, IonWorks Quattro, Ussing chamber ion transport); patent does not say which gave the EC50. Format: cell-based. To be noted: Table 1, representative compounds; data measurements described above; read-out: EC50. The source says:
CFTR activity can be quantified by measuring the transmembrane potential. The means for measuring the transmembrane potential in a biological system can employ a number of methods including electrophysiological and optical fluorescence-based membrane potential assays.
The optical membrane potential assay utilises a negatively charged potentiometric dye, such as the FLIPR membrane potential dye (FMP) (see Baxter D F, Kirk M, Garcia A F, Raimondi A, Holmqvist M H, Flint K K, Bojanic D, Distefano P S, Curtis R, Xie Y. ‘A novel membrane potential-sensitive fluorescent dye improves cell-based assays for ion channels.’ J Biomol Screen. 2002 February; 7(1):79-85) which when extracellular is bound to a quenching agent. Upon cellular depolarisation the negatively charged dye redistributes to the intracellular compartment, unbinding from the membrane impermeant quench agent, yielding an increase in fluorescence. This change in fluorescence is proportional to the change in transmembrane potential which can result from the activity of CFTR. The changes in fluorescence can be monitored in real time by an appropriately equipped fluorescence detector such as the FLIPR (fluorometric imaging plate reader) in 96 or 384-well microtitre plates.
Chinese hamster ovary (CHO) cells stably expressing the ΔF508-CFTR channel were used for membrane potential experiments. Cells were maintained at 37° C. in 5% v/v CO2 at 100% humidity in Modified Eagles medium (MEM) supplemented with 8% v/v foetal calf serum, 100 µg/ml methotrexate and 100 U/ml penicillin/streptomycin. Cells were grown in 225 cm^2 tissue culture flasks. For membrane potential assays cells were seeded into 96 well plates at 40,000 cells per well, allowed to adhere and then maintained at 26° C. for 48 h to facilitate channel insertion.
The membrane potential screening assay utilised a low chloride ion containing extracellular solution (˜5 mM) combined with a double addition protocol. The first addition was of buffer with or without test compound followed 5 minutes later by an addition of forskolin (1-20 μM)—this protocol favours maximum chloride efflux in response to ΔF508-CFTR activation. The ΔF508-CFTR mediated chloride ion efflux leads to a membrane depolarisation which is optically monitored by the FMP dye.
Low chloride extracellular (mM): 120 Na-gluconate, 1.2 CaCl2, 3.3 KH2PO4, 0.8 K2HPO4, 1.2 MgCl2, 10.0 D-glucose, 20.0 HEPES, pH 7.4 with NaOH FMP dye: made up as per manufacturers' instructions in low chloride extracellular solution detailed above, at 10× final concentration, and stored as 1 mL aliquots at −20° C.
CFTR activity can also be quantified electrophysiologically using the whole-cell configuration of the patch clamp technique (Hamill et al Pflugers Acrhive 1981). This assay directly measures the currents associated with chloride flow through CFTR channels whilst either maintaining or adjusting the transmembrane voltage. This assay can use either single glass micropipettes or parallel planar arrays to measure CFTR activity from native or recombinant cell systems. Currents measured using parallel planar arrays can be quantified using an appropriately equipped instrument such as the IonWorks Quattro (Molecular Devices) or the Qpatch (Sophion). The Quattro system can measure CFTR currents from either a single cell per recording well (HT configuration) or alternatively from a population of 64 cells per well (Population Patch Clamp PPC) (Finkel A, Wittel A, Yang N, Handran S, Hughes J, Costantin J. ‘Population patch clamp improves data consistency and success rates in the measurement of ionic currents.’ J Biomol Screen. 2006 August; 11(5):488-96).
Chinese hamster ovary (CHO) cells stably expressing the ΔF508-CFTR channel were used for IonWorks Quattro experiments. […]
Consider `COc1nc(C(=O)NC[C@](C)(O)C(F)(F)F)c(N)cc1C(F)(F)F` [Example 5, 3-Amino-6-methoxy-5-trifluoromethyl-pyridine-2-carboxylic acid ((S)-3,3,3-trifluoro-2-hydroxy-2-methyl-propyl)-amide], for which the EC50 – broadly, the concentration at which the effect is half-maximal – was 0.05 µM.

With `CC(O)(CNC(=O)c1nc(-c2ccc(Cl)cc2Cl)c(C(F)(F)F)cc1N)C(F)(F)F` (single isomer, unassigned) [Example 10, 3-Amino-6-(2,4-dichloro-phenyl)-5-trifluoromethyl-pyridine-2-carboxylic acid (3,3,3-trifluoro-2-hydroxy-2-methyl-propyl)-amide], the EC50 was determined as 0.112 µM.

For the molecule `COc1nc(C(=O)NC[C@@](C)(O)C(F)(F)F)c(N)cc1C(F)(F)F` [Example 6, 3-Amino-6-methoxy-5-trifluoromethyl-pyridine-2-carboxylic acid ((R)-3,3,3-trifluoro-2-hydroxy-2-methyl-propyl)-amide], the EC50 came out at 0.426 µM.

In the case of `CC(O)(CNC(=O)c1nc(-c2ccc(Cl)cc2Cl)c(C(F)(F)F)cc1N)C(F)(F)F` (single isomer, unassigned) [Example 9, 3-Amino-6-(2,4-dichloro-phenyl)-5-trifluoromethyl-pyridine-2-carboxylic acid (3,3,3-trifluoro-2-hydroxy-2-methyl-propyl)-amide], the EC50 was determined as 0.09 µM.

Staying with this experiment, now noted: data measurements described above; read-out: CFTR EC50.
As for `CCN1CCC[C@H]1CNC(=O)c1nc(Br)c(C(F)(F)F)nc1N` [(S)-3-amino-6-bromo-N-((1-ethylpyrrolidin-2-yl)methyl)-5-(trifluoromethyl)pyrazine-2-carboxamide], the concentration for a half-maximal effect (EC50) was over 5 µM.

For the molecule `Cn1ccc(CNC(=O)c2nc(Br)c(C(F)(F)F)nc2N)n1` [3-amino-6-bromo-N-((1-methyl-1H-pyrazol-3-yl)methyl)-5-(trifluoromethyl)pyrazine-2-carboxamide], the EC50 is over 5 µM.

Consider `CN1CCN[C@H](CNC(=O)c2nc(Br)c(C(F)(F)F)nc2N)C1` [(R)-3-amino-6-bromo-N-((4-methylpiperazin-2-yl)methyl)-5-(trifluoromethyl)pyrazine-2-carboxamide], for which the EC50 was over 5 µM.

Regarding `CN1CCN(C(=O)c2nc(Br)c(C(F)(F)F)nc2N)CC1` [(3-amino-6-bromo-5-(trifluoromethyl)pyrazin-2-yl)(4-methylpiperazin-1-yl)methanone], the EC50 is over 5 µM.

Regarding `Cn1cncc1CNC(=O)c1nc(Br)c(C(F)(F)F)nc1N` [3-amino-6-bromo-N-((1-methyl-1H-imidazol-5-yl)methyl)-5-(trifluoromethyl)pyrazine-2-carboxamide], the EC50 was over 5 µM.

As for `CN(Cc1ccccc1)C(=O)c1nc(Br)c(C(F)(F)F)nc1N` [3-amino-N-benzyl-6-bromo-N-methyl-5-(trifluoromethyl)pyrazine-2-carboxamide], the EC50 was over 5 µM.

Turning to `Nc1nc(C(F)(F)F)c(Br)nc1C(=O)NCc1ncn2ccccc12` [3-amino-6-bromo-N-(imidazo[1,5-a]pyridin-1-ylmethyl)-5-(trifluoromethyl)pyrazine-2-carboxamide], the EC50 was over 5 µM.

`CN1CCN(C(=O)c2nc(Br)c(C(F)(F)F)nc2N)CC1c1ccccc1` (centres unmarked) [(3-amino-6-bromo-5-(trifluoromethyl)pyrazin-2-yl)(4-methyl-3-phenylpiperazin-1-yl)methanone]: the EC50 was over 5 µM.

For `Nc1nc(C(F)(F)F)c(Br)nc1C(=O)NCCc1ccncc1` [3-amino-6-bromo-N-(2-(pyridin-4-yl)ethyl)-5-(trifluoromethyl)pyrazine-2-carboxamide], the EC50 is over 5 µM.

With `CC(O)(CNC(=O)c1nc(O)c(C(F)(F)F)cc1N)C(F)(F)F` (centres unmarked) [3-amino-6-hydroxy-N-(3,3,3-trifluoro-2-hydroxy-2-methylpropyl)-5-(trifluoromethyl)picolinamide], the EC50 is over 5 µM.

With `Cc1cc(C(N)=O)ccc1-c1nc(C(=O)NCC(=O)c2ccc(F)cc2)c(N)cc1C(F)(F)F` [3-amino-6-(4-carbamoyl-2-methylphenyl)-N-(2-(4-fluorophenyl)-2-oxoethyl)-5-(trifluoromethyl)picolinamide], the EC50 is over 5 µM.

For `Cn1ccc2ccc(-c3nc(C(=O)NCC(=O)c4ccc(F)cc4)c(N)cc3C(F)(F)F)cc21` [3-amino-N-(2-(4-fluorophenyl)-2-oxoethyl)-6-(1-methyl-1H-indol-6-yl)-5-(trifluoromethyl)picolinamide], the EC50 is over 5 µM.

Consider `Nc1nc(C(F)(F)F)c(Br)nc1C(=O)NCCc1cccnc1` [3-amino-6-bromo-N-(2-(pyridin-3-yl)ethyl)-5-(trifluoromethyl)pyrazine-2-carboxamide], for which the half-maximal effective concentration (EC50) was over 5 µM.

As to `Cn1nccc1CNC(=O)c1nc(Br)c(C(F)(F)F)nc1N` [3-amino-6-bromo-N-((1-methyl-1H-pyrazol-5-yl)methyl)-5-(trifluoromethyl)pyrazine-2-carboxamide], the EC50 was over 5 µM.

Take `Cc1ccc(C)n1-c1cc(C(F)(F)F)c(On2nnc3cccnc32)nc1C(=O)NCC(C)(O)C(F)(F)F` (centres unmarked) [6-((3H-[1,2,3]triazolo[4,5-b]pyridin-3-yl)oxy)-3-(2,5-dimethyl-1H-pyrrol-1-yl)-N-(3,3,3-trifluoro-2-hydroxy-2-methylpropyl)-5-(trifluoromethyl)picolinamide]: the EC50 was over 5 µM.

Regarding `CC(C)CN(C)C(=O)c1nc(Br)c(C(F)(F)F)nc1N` [3-amino-6-bromo-N-isobutyl-N-methyl-5-(trifluoromethyl)pyrazine-2-carboxamide], the EC50 was over 5 µM.

As for `Cn1cnc(CNC(=O)c2nc(Br)c(C(F)(F)F)nc2N)c1` [3-amino-6-bromo-N-((1-methyl-1H-imidazol-4-yl)methyl)-5-(trifluoromethyl)pyrazine-2-carboxamide], the EC50 is over 5 µM.

As for `Nc1nc(C(F)(F)F)c(Br)nc1C(=O)NCc1cn2ccccc2n1` [3-amino-6-bromo-N-(imidazo[1,2-a]pyridin-2-ylmethyl)-5-(trifluoromethyl)pyrazine-2-carboxamide], the EC50 was over 5 µM.

Regarding `CNc1cc(C(F)(F)F)c(Br)nc1C(=O)NCC(C)(O)C(F)(F)F` (centres unmarked) [6-bromo-3-(methylamino)-N-(3,3,3-trifluoro-2-hydroxy-2-methylpropyl)-5-(trifluoromethyl)picolinamide], the EC50 was over 5 µM.

For the molecule `Nc1cc(C(F)(F)F)c(Br)nc1C(=O)NCC(=O)O` [2-(3-amino-6-bromo-5-(trifluoromethyl)picolinamido)acetic acid], the EC50 was over 5 µM.

As to `Cc1ccc(-c2nc(C(=O)NCC(=O)c3ccc(F)cc3)c(N)cc2C(F)(F)F)cc1C` [3-amino-6-(3,4-dimethylphenyl)-N-(2-(4-fluorophenyl)-2-oxoethyl)-5-(trifluoromethyl)picolinamide], the EC50 is over 5 µM.

For the molecule `CN(C)CCCOc1ccc(-c2nc(C(=O)NCC(=O)c3ccc(F)cc3)c(N)nc2C(F)(F)F)cn1` [3-amino-6-(6-(3-(dimethylamino)propoxy)pyridin-3-yl)-N-(2-(4-fluorophenyl)-2-oxoethyl)-5-(trifluoromethyl)pyrazine-2-carboxamide], the EC50 is over 5 µM.

With `Cn1ccnc1CNC(=O)c1nc(Br)c(C(F)(F)F)nc1N` [3-amino-6-bromo-N-((1-methyl-1H-imidazol-2-yl)methyl)-5-(trifluoromethyl)pyrazine-2-carboxamide], the EC50 was over 5 µM.

Regarding `Nc1cc(C(F)(F)F)c(-c2ccc3c(c2)CCNC3=O)nc1C(=O)NCC(=O)c1ccc(F)cc1` [3-amino-N-(2-(4-fluorophenyl)-2-oxoethyl)-6-(1-oxo-1,2,3,4-tetrahydroisoquinolin-6-yl)-5-(trifluoromethyl)picolinamide], the EC50 is over 5 µM.

For the molecule `CN(C)S(=O)(=O)c1cccc(-c2nc(C(=O)NCC(=O)c3ccc(F)cc3)c(N)cc2C(F)(F)F)c1` [3-amino-6-(3-(N, N-dimethylsulfamoyl)phenyl)-N-(2-(4-fluorophenyl)-2-oxoethyl)-5-(trifluoromethyl)picolinamide], the EC50 is over 5 µM.
